Measurements from PMC3389279 (Bioorganic & medicinal chemistry letters, 2012).
“Also recorded” adds a separate entry of the source.

Experiments:
NKCC1 [1] = biological target: T1, NKCC1 (Homo sapiens, UniProt P55011); assay: 86Rb uptake assay, NKCC1 function; assay type: cell-based; details: concentrations up to 100 µM
T1 sequence (P55011 1-1212): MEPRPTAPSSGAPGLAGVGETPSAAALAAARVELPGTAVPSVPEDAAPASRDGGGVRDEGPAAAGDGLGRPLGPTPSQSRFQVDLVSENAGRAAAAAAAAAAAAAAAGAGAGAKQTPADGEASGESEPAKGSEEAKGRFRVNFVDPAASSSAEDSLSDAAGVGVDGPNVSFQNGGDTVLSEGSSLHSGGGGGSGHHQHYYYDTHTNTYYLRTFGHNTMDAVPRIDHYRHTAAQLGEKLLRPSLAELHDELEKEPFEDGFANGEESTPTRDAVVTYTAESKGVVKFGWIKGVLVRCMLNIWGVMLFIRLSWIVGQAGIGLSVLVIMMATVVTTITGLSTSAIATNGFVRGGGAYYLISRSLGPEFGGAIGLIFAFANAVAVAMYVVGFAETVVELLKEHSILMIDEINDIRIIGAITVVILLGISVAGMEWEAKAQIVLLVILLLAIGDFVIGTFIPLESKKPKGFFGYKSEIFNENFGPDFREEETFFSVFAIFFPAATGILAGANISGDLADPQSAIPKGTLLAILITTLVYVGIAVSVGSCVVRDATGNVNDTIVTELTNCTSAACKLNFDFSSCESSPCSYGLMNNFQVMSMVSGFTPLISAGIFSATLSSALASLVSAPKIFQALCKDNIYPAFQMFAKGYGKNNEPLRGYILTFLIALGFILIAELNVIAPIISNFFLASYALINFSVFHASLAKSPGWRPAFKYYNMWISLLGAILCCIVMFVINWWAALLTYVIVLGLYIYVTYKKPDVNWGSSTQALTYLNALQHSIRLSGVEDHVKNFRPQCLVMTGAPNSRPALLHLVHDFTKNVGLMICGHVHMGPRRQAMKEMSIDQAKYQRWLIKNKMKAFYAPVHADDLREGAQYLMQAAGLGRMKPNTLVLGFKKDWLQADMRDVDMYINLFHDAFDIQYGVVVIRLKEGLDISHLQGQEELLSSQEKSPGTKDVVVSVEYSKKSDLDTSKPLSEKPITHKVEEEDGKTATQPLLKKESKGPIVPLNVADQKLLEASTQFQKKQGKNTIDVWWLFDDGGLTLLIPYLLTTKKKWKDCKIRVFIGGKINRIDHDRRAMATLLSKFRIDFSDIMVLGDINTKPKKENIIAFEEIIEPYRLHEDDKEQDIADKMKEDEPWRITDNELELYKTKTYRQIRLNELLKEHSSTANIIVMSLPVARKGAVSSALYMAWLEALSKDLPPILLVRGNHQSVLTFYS

[2] = Intrinsic clearance in human liver microsomes; assay type: in vitro ADME
[3] = tested on: 68 GPCRs, ion channels and transporters; assay: Lead Profiling screen at Ricerca, radioligand binding assays
KCC2 [4] = biological target: T2, KCC2 (Homo sapiens, UniProt Q9H2X9); assay: 86Rb uptake assay in KCC2-overexpressing HEK293 cells; assay type: cell-based; details: first generation libraries, 2-pyridyl-based analogs
T2 sequence (Q9H2X9 1-1139): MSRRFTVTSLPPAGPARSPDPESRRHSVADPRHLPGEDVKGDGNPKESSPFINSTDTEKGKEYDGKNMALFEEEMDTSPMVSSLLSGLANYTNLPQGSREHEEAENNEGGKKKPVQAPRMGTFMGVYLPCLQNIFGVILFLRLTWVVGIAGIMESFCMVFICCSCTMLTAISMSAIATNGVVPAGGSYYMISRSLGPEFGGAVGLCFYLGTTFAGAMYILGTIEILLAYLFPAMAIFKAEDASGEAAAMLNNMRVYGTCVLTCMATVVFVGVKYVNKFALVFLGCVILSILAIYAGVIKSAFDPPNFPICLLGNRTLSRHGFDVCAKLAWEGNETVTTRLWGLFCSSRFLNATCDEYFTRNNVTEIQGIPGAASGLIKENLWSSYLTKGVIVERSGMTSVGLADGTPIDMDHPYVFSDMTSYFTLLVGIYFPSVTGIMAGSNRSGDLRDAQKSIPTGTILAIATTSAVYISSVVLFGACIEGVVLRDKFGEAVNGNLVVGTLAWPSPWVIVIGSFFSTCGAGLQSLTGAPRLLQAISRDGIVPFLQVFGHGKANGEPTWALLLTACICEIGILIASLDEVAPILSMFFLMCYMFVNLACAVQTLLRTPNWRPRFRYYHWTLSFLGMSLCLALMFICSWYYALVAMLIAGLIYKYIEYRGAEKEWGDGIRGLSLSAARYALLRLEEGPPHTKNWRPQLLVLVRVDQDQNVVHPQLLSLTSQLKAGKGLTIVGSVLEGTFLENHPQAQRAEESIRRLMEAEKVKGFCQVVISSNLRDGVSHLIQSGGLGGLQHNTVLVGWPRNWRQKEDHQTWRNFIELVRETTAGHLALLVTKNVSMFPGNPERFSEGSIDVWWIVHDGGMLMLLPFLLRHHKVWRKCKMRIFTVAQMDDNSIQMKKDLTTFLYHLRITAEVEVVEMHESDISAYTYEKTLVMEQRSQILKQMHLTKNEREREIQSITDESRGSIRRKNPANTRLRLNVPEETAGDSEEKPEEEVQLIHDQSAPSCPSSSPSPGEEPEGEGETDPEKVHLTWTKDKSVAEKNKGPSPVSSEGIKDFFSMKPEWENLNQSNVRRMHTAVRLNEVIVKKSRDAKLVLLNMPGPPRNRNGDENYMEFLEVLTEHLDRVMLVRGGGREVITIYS

NKCC1 [5] = biological target: T1, NKCC1; details: KCC2 versus NKCC1; cited from earlier work
[6] = Intrinsic clearance in rat liver microsomes; assay type: in vitro ADME
KCC2 [7] = biological target: T2, KCC2; details: intrathecal injection; cited from earlier work

Row | SMILES | inhibition of NKCC1 function (in words) (NKCC1 [1]) | KCC2 antagonist activity (in words) (KCC2 [4]) | selectivity versus NKCC1 (NKCC1 [5]) [fold] | further results
1 | Cc1csc(N(C(=O)CSc2ccc(-c3ccccc3)nn2)C2CC2)n1 [11k] | weak, partial inhibition; also recorded: weak partial inhibition |  |  | Intrinsic clearance (in words) [2]: rapidly cleared in vitro; inhibition in ancillary pharmacology panel ([3]; 10 µM, 68 targets): ≤ 50%; activity in ancillary pharmacology panel (in words) ([3]; panel of 68 GPCRs, ion channels and transporters): no activity
2 | Cc1csc(N(C)C(=O)CSc2ccc(-c3ccccc3)cn2)n1 [compound 10] |  | weak |  | 
3 | Cc1csc(N(C)C(=O)CSc2ccc(-c3ccccc3)nn2)n1 [compound 2] | weak, partial inhibition; also recorded: weak partial inhibition |  | > 100 | CLint scaled [2]: 229 mL/min/kg; CLint scaled [6]: 294 mL/min/kg; block of KCC2 in spinal cord (in words) (KCC2 [7]): used successfully to block KCC2 in spinal cord
4 | Cc1csc(NC(=O)CSc2ccc(-c3ccccc3)cn2)n1 [compound 9] |  | weak |  | 
5 | Cc1csc(NC(=O)CSc2ccc(-c3ccccc3)nn2)n1 [compound 1] |  |  | > 100 | 
